Results on one compound are retold here after patent US20100011610A1, “FLUIDIZED SPRAY DRYING” (Vertex Pharmaceuticals Incorporated, priority 2006, published 2010).

The structures appear in SMILES notation.

The nature of this data set: in vivo. The conditions noted are these: rat, po.

On to `CCC[C@H](NC(=O)[C@@H]1[C@H]2CCC[C@H]2CN1C(=O)[C@@H](NC(=O)[C@@H](NC(=O)c1cnccn1)C1CCCCC1)C(C)(C)C)C(=O)C(=O)NC1CC1` [VX-950, Telaprevir], for which the bioavailability is under 0.5%.
